Experimental data: publication PMC12278645, “Design, synthesis, and antitumor activity of novel thioheterocyclic nucleoside derivatives by suppressing the c-MYC pathway” (Acta Pharmaceutica Sinica. B, 2025)

Test system: HeLa cells
Test: CCK-8 anti-proliferation assay, HeLa
Assay type: cell-based, human
Conditions: CCK-8, 48 h, mean ± SD, three independent experiments
Procedure: (§1) Tumor cell anti-proliferation activities were determined by cell counting kit-8 (CCK-8) assay.
(§2) MCF-7, A375, and HeLa cells were cultured in DMEM, HCT116 cells were cultured in McCoy's 5A medium, and DU145 and CT26 were cultured in RPMI 1640 with 10% FBS, 1% penicillin-streptomycin solution (10,000 U/mL penicillin and 10,000 μg/mL streptomycin) at 37 °C under 5% CO2. The cells were seeded in 96-well plates (4 × 10^3 cells/well) overnight and then treated with various concentrations (1–50 μmol/L) of the compound. After 48 h, the cell viability was measured by CCK-8 assay. The absorbance of each well was measured using a microplate reader (Multiskan FC, Thermo Fisher Scientific, Massachusetts, USA) at 450 nm wavelength. Assays were performed in triplicate. Compound concentrations that inhibited cell growth by 50% (IC50) were calculated from the dose–response curves of each cell line. Data are mean ± SD values from three independent experiments.

Row | SMILES | IC50 [µM]
1 | CCCSc1nc(F)nc2c1ncn2C1(C(=O)OCC)CSCC1O (stereo not shown) [36a] | 9.68 ± 1.12
2 | CCOC(=O)C1(n2cnc3c(N4CCCCC4)ncnc32)CSCC1O (single isomer, unassigned) [5b] | 4.61 ± 0.87
3 | CCOC(=O)C1(n2cnc3c(N4CCCCC4)ncnc32)CSCC1O (single isomer, unassigned) [5a] | 2.65 ± 0.52
4 | CCCSc1ncnc2c1ncn2C1(C(=O)OCC)CSCC1O (single isomer, unassigned) [8a] | 2.77 ± 0.41
5 | CCOC(=O)C1(n2cnc3c(N4CCCCC4)nc(F)nc32)CSCC1O (stereo not shown) [33b] | 8.15 ± 1.08
6 | N.N.[Cl][Pt][Cl] [Cisplatin, cisplatin, reference compound] | 11.2 ± 0.81
7 | CCCSc1nc(F)nc2c1ncn2[C@@]1(C(=O)OCC)CSC[C@@H]1O [36ba] | 5.52 ± 1.12
8 | CCOC(=O)C1(n2cnc3c(Cl)ncnc32)CSCC1O (single isomer, unassigned) [2a] | > 50
9 | CCOC(=O)C1(n2cnc3c(OC)ncnc32)CSCC1O (stereo not shown) [7a] | > 50
10 | CCOC(=O)C1(n2cnc3c(N4CCC(Cl)CC4)ncnc32)CSCC1O (single isomer, unassigned) [14b] | 14.3 ± 1.58
11 | CCOC(=O)C1(n2cnc3c(N4CCSCC4)ncnc32)CSCC1O (single isomer, unassigned) [10a] | 45.8 ± 2.12
12 | CCOC(=O)C1(n2cnc3c(N4CCC(C(F)(F)F)CC4)ncnc32)CSCC1O (single isomer, unassigned) [13a] | 42 ± 2.12
13 | CCCSc1ncnc2c1ncn2C1(C(=O)OCC)CSCC1O (single isomer, unassigned) [8b] | 2.55 ± 0.12
14 | CCOC(=O)C1(n2cnc3c(N4CCN(C)CC4)ncnc32)CSCC1O (stereo not shown) [18a] | > 50
15 | CCOC(=O)C1(n2cnc3c(N4CCC(C)CC4)ncnc32)CSCC1O (single isomer, unassigned) [11a] | 21.8 ± 2.42

Same assay, conditions: Homo sapiens, HeLa, 48 h, CCK-8, 48 h, mean ± SD, three independent experiments

Row | IC50 [µM] | SMILES
16 | 4.93 ± 1.02 | O=c1[nH]cc(F)c(=O)[nH]1 [5-FU, 5-fluorouracil, reference compound]
17 | 5.46 ± 1.02 | CCOC(=O)[C@]1(n2cnc3c(SCC)ncnc32)CSC[C@H]1O (relative stereo) [22a]
18 | 3.43 ± 0.76 | CCOC(=O)[C@]1(n2cnc3c(SC(C)C)ncnc32)CSC[C@@H]1O (relative stereo) [23b]
19 | 22.3 ± 2.09 | CCOC(=O)[C@]1(n2cnc3c(SCc4ccccc4)ncnc32)CSC[C@H]1O (relative stereo) [27a]
20 | 10.1 ± 1.02 | CCOC(=O)[C@@]1(n2cnc3c(N4CCCCC4)nc(F)nc32)CSC[C@@H]1O [33 ab]

Same assay, conditions: Table S3, CCK-8, mean ± SD

Row | IC50 [µM] | SMILES
21 | 25.6 ± 2.13 | CCOC(=O)C1(n2cnc3c(Cl)nc(N)nc32)CSCC1O (single isomer, unassigned) [38a]
22 | 11.2 ± 1.32 | CCOC(=O)C1(n2cnc3c(Cl)nc(F)nc32)CSCC1O (single isomer, unassigned) [39a]
23 | 3.21 ± 0.65 | CCOC(=O)C1(n2cnc3c(N4CCOCC4)nc(Cl)nc32)CSCC1O (single isomer, unassigned) [42b]

Test system: HCT116 cells
Test: CCK-8 anti-proliferation assay, HCT116
Assay type: cell-based, human
Conditions: CCK-8, 48 h, mean ± SD, three independent experiments
Procedure: as §1, §2

Row | SMILES | IC50 [µM]
24 | CCCSc1nc(F)nc2c1ncn2C1(C(=O)OCC)CSCC1O (stereo not shown) [36a] | 0.72 ± 0.12
25 | CCOC(=O)C1(n2cnc3c(N4CCCCC4)ncnc32)CSCC1O (single isomer, unassigned) [5b] | 1.77 ± 0.12
26 | CCOC(=O)C1(n2cnc3c(N4CCCCC4)ncnc32)CSCC1O (single isomer, unassigned) [5a] | 1.84 ± 0.14
27 | CCCSc1ncnc2c1ncn2C1(C(=O)OCC)CSCC1O (single isomer, unassigned) [8a] | 3.43 ± 0.23
28 | CCOC(=O)C1(n2cnc3c(N4CCCCC4)nc(F)nc32)CSCC1O (stereo not shown) [33b] | 0.46 ± 0.04
29 | N.N.[Cl][Pt][Cl] [Cisplatin, cisplatin, reference compound] | 5.29 ± 0.25
30 | CCCSc1nc(F)nc2c1ncn2[C@@]1(C(=O)OCC)CSC[C@@H]1O [36ba] | 0.89 ± 0.14
31 | CCOC(=O)C1(n2cnc3c(Cl)ncnc32)CSCC1O (single isomer, unassigned) [2a] | 48.9 ± 2.12
32 | CCOC(=O)C1(n2cnc3c(OC)ncnc32)CSCC1O (stereo not shown) [7a] | > 50
33 | CCOC(=O)C1(n2cnc3c(N4CCC(Cl)CC4)ncnc32)CSCC1O (single isomer, unassigned) [14b] | 18 ± 2.37
34 | CCOC(=O)C1(n2cnc3c(N4CCSCC4)ncnc32)CSCC1O (single isomer, unassigned) [10a] | 18.8 ± 1.04
35 | CCOC(=O)C1(n2cnc3c(N4CCC(C(F)(F)F)CC4)ncnc32)CSCC1O (single isomer, unassigned) [13a] | 5.89 ± 1.02
36 | CCCSc1ncnc2c1ncn2C1(C(=O)OCC)CSCC1O (single isomer, unassigned) [8b] | 2.02 ± 0.07
37 | CCOC(=O)C1(n2cnc3c(N4CCN(C)CC4)ncnc32)CSCC1O (stereo not shown) [18a] | > 50
38 | CCOC(=O)C1(n2cnc3c(N4CCC(C)CC4)ncnc32)CSCC1O (single isomer, unassigned) [11a] | 1.44 ± 0.13

Same assay, conditions: Homo sapiens, HCT-116, 48 h, CCK-8, 48 h, mean ± SD, three independent experiments

Row | IC50 [µM] | SMILES
39 | 9.84 ± 2.32 | O=c1[nH]cc(F)c(=O)[nH]1 [5-FU, 5-fluorouracil, reference compound]
40 | 7.56 ± 1.09 | CCOC(=O)[C@]1(n2cnc3c(SCC)ncnc32)CSC[C@H]1O (relative stereo) [22a]
41 | 4.01 ± 0.88 | CCOC(=O)[C@]1(n2cnc3c(SC(C)C)ncnc32)CSC[C@@H]1O (relative stereo) [23b]
42 | 14.4 ± 1.64 | CCOC(=O)[C@]1(n2cnc3c(SCc4ccccc4)ncnc32)CSC[C@H]1O (relative stereo) [27a]
43 | 0.21 ± 0.13 | CCOC(=O)[C@@]1(n2cnc3c(N4CCCCC4)nc(F)nc32)CSC[C@@H]1O [33 ab]

Same assay, conditions: Table S3, CCK-8, mean ± SD

Row | IC50 [µM] | SMILES
44 | 30.5 ± 1.42 | CCOC(=O)C1(n2cnc3c(Cl)nc(N)nc32)CSCC1O (single isomer, unassigned) [38a]
45 | 3.42 ± 0.42 | CCOC(=O)C1(n2cnc3c(Cl)nc(F)nc32)CSCC1O (single isomer, unassigned) [39a]
46 | 4.48 ± 0.56 | CCOC(=O)C1(n2cnc3c(N4CCOCC4)nc(Cl)nc32)CSCC1O (single isomer, unassigned) [42b]

Same assay, conditions: under 50 μmol/L; HeLa and HCT116

Row | SMILES | anticancer activity
47 | CCOC(=O)C1(n2cnc3c(N4CCN(C)CC4)ncnc32)CSCC1O (stereo not shown) [18a] | inactive

Test system: MCF-7 (human breast cancer)
Test: CCK-8 anti-proliferation assay, MCF-7
Assay type: cell-based
Conditions: CCK-8, 48 h, mean ± SD
Procedure: (§3) To evaluate their spectrum of anti-proliferative activity, further CCK-8 assays were carried out with the selected compounds (5a/5b, 8a/8b, 33a/33b, and 36a/36b) on MCF-7 (human breast cancer), A375 (human malignant melanoma), DU145 (human prostate cancer), and CT26 (mouse colon cancer) cell lines. The selected compounds had moderate to potent antitumor activity on the four cell lines, indicating their broad spectrum of antitumor activity (Table 5).
as §2

Row | SMILES | IC50 [µM]
48 | CCCSc1nc(F)nc2c1ncn2C1(C(=O)OCC)CSCC1O (stereo not shown) [36a] | 11.3 ± 1.27
49 | CCOC(=O)C1(n2cnc3c(N4CCCCC4)ncnc32)CSCC1O (single isomer, unassigned) [5b] | 35.2 ± 2.14
50 | CCOC(=O)C1(n2cnc3c(N4CCCCC4)ncnc32)CSCC1O (single isomer, unassigned) [5a] | 11.2 ± 1.04
51 | CCCSc1ncnc2c1ncn2C1(C(=O)OCC)CSCC1O (single isomer, unassigned) [8a] | 28.2 ± 2.16
52 | CCOC(=O)C1(n2cnc3c(N4CCCCC4)nc(F)nc32)CSCC1O (stereo not shown) [33b] | 7.47 ± 1.17
53 | N.N.[Cl][Pt][Cl] [Cisplatin, cisplatin, reference compound] | 6.32 ± 0.74
54 | CCCSc1ncnc2c1ncn2C1(C(=O)OCC)CSCC1O (single isomer, unassigned) [8b] | 25.4 ± 2.45

Same assay, conditions: Homo sapiens, MCF7; CCK-8, 48 h, mean ± SD

Row | IC50 [µM] | SMILES
55 | > 50 | O=c1[nH]cc(F)c(=O)[nH]1 [5-FU, 5-fluorouracil, reference compound]

Test system: A375 (human malignant melanoma)
Test: CCK-8 anti-proliferation assay, A375
Assay type: cell-based
Conditions: CCK-8, 48 h, mean ± SD
Procedure: as §3, §2

Row | SMILES | IC50 [µM]
56 | CCCSc1nc(F)nc2c1ncn2C1(C(=O)OCC)CSCC1O (stereo not shown) [36a] | 4.27 ± 1.02
57 | CCOC(=O)C1(n2cnc3c(N4CCCCC4)ncnc32)CSCC1O (single isomer, unassigned) [5b] | 7.52 ± 1.03
58 | CCOC(=O)C1(n2cnc3c(N4CCCCC4)ncnc32)CSCC1O (single isomer, unassigned) [5a] | 11.8 ± 1.12
59 | CCCSc1ncnc2c1ncn2C1(C(=O)OCC)CSCC1O (single isomer, unassigned) [8a] | 4.52 ± 1.12
60 | CCOC(=O)C1(n2cnc3c(N4CCCCC4)nc(F)nc32)CSCC1O (stereo not shown) [33b] | 14.67 ± 0.09
61 | N.N.[Cl][Pt][Cl] [Cisplatin, cisplatin, reference compound] | 9.42 ± 0.87
62 | CCCSc1ncnc2c1ncn2C1(C(=O)OCC)CSCC1O (single isomer, unassigned) [8b] | 2.82 ± 0.03

Same assay, conditions: Homo sapiens, A-375; CCK-8, 48 h, mean ± SD

Row | IC50 [µM] | SMILES
63 | 8.62 ± 1.21 | O=c1[nH]cc(F)c(=O)[nH]1 [5-FU, 5-fluorouracil, reference compound]

Test system: DU145 (human prostate cancer)
Test: CCK-8 anti-proliferation assay, DU145
Assay type: cell-based
Conditions: CCK-8, 48 h, mean ± SD
Procedure: as §3, §2

Row | SMILES | IC50 [µM]
64 | CCCSc1nc(F)nc2c1ncn2C1(C(=O)OCC)CSCC1O (stereo not shown) [36a] | 9.48 ± 1.11
65 | CCOC(=O)C1(n2cnc3c(N4CCCCC4)ncnc32)CSCC1O (single isomer, unassigned) [5b] | 42.5 ± 2.11
66 | CCOC(=O)C1(n2cnc3c(N4CCCCC4)ncnc32)CSCC1O (single isomer, unassigned) [5a] | 42.8 ± 2.12
67 | CCCSc1ncnc2c1ncn2C1(C(=O)OCC)CSCC1O (single isomer, unassigned) [8a] | 29.3 ± 1.37
68 | CCOC(=O)C1(n2cnc3c(N4CCCCC4)nc(F)nc32)CSCC1O (stereo not shown) [33b] | 18.6 ± 2.12
69 | N.N.[Cl][Pt][Cl] [Cisplatin, cisplatin, reference compound] | 9.65 ± 0.48
70 | CCCSc1ncnc2c1ncn2C1(C(=O)OCC)CSCC1O (single isomer, unassigned) [8b] | 11 ± 1.04

Same assay, conditions: Homo sapiens, DU-145; CCK-8, 48 h, mean ± SD

Row | IC50 [µM] | SMILES
71 | 21.4 ± 2.17 | O=c1[nH]cc(F)c(=O)[nH]1 [5-FU, 5-fluorouracil, reference compound]

Test system: CT26 (mouse colon cancer)
Test: CCK-8 anti-proliferation assay, CT26
Assay type: cell-based
Conditions: CCK-8, 48 h, mean ± SD
Procedure: as §3, §2

Row | SMILES | IC50 [µM]
72 | CCCSc1nc(F)nc2c1ncn2C1(C(=O)OCC)CSCC1O (stereo not shown) [36a] | 0.94 ± 0.11
73 | CCOC(=O)C1(n2cnc3c(N4CCCCC4)ncnc32)CSCC1O (single isomer, unassigned) [5b] | 2.42 ± 0.11
74 | CCOC(=O)C1(n2cnc3c(N4CCCCC4)ncnc32)CSCC1O (single isomer, unassigned) [5a] | 2.33 ± 0.14
75 | CCCSc1ncnc2c1ncn2C1(C(=O)OCC)CSCC1O (single isomer, unassigned) [8a] | 2.58 ± 0.15
76 | CCOC(=O)C1(n2cnc3c(N4CCCCC4)nc(F)nc32)CSCC1O (stereo not shown) [33b] | 0.79 ± 0.14
77 | N.N.[Cl][Pt][Cl] [Cisplatin, cisplatin, reference compound] | 22.5 ± 1.28
78 | CCCSc1ncnc2c1ncn2C1(C(=O)OCC)CSCC1O (single isomer, unassigned) [8b] | 2.37 ± 0.08

Same assay, conditions: Mus musculus, CT26; CCK-8, 48 h, mean ± SD

Row | IC50 [µM] | SMILES
79 | 3.12 ± 0.13 | O=c1[nH]cc(F)c(=O)[nH]1 [5-FU, 5-fluorouracil, reference compound]
